In ChEMBL document CHEMBL1201862, “PubChem BioAssay data set” (2004):
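Compound exposure: 48 hours, 5 concentrations, 96-well plates. GI50: concentration for 50% inhibition of growth.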 Active and inactive are the calls of the source. Rule as the data show it: active = GI50 up to about 1.1 µM and inactive = higher.

Experiments:
Experiment in all cases: inhibition of tumour cell growth, NCI panel, 48 h
[1] = test system: MOLT-4
[2] = test system: CCRF-CEM
[3] = test system: SF-295
[4] = test system: NCI-H460
[5] = test system: SNB-19
[6] = test system: SK-MEL-5
[7] = test system: IGROV-1
[8] = test system: UACC-62
[9] = test system: NCI-H522
[10] = test system: UACC-257
[11] = test system: SK-MEL-28
[12] = test system: CAKI-1
[13] = test system: A549
[14] = test system: OVCAR-4
[15] = test system: NCI-H226
[16] = test system: ACHN

Measured: GI50

COc1ccc(-c2onc(-c3ccc([N+](=O)[O-])cc3)c2C2=NCCCN2)cc1
inactive: [1] 76.2 µM | [2] > 100 µM | [3] 53.2 µM | [4] 51.8 µM | [5] > 100 µM | [6] 30.2 µM | [7] > 100 µM | [8] > 100 µM | [9] 51.3 µM | [10] 87.7 µM | [11] 38.4 µM | [12] > 100 µM | [13] > 100 µM | [14] > 100 µM | [15] 38.8 µM | [16] > 100 µM

O=C(O)Cc1cc(=O)[nH]c2c1/C(=N/O)CCC2
inactive: [1] > 100 µM | [2] > 100 µM | [3] > 100 µM | [4] > 100 µM | [5] > 100 µM | [6] > 100 µM | [7] > 100 µM | [9] > 100 µM | [10] > 100 µM | [11] > 100 µM | [13] > 100 µM | [15] > 100 µM | [16] > 100 µM

Cc1cc2nc3c(=O)n(C)c(=O)nc-3n(-c3ccc(Cl)cc3)c2cc1C
inactive: [1] 11.2 µM | [2] 13.6 µM | [3] 12.2 µM | [4] 3.3 µM | [5] 5.78 µM | [6] 1.72 µM | [7] 14.6 µM | [8] 2.91 µM | [9] > 10 µM | [10] 6.75 µM | [11] 15.2 µM | [12] 16.4 µM | [13] 3.52 µM | [14] 5.16 µM | [15] 13.1 µM | [16] 11.4 µM

CCOC(=O)c1sc(Nc2cc(Cl)ccc2Cl)nc1C
inactive: [1] 29.6 µM | [3] 64 µM | [4] > 100 µM | [5] > 100 µM | [7] 73.1 µM | [9] > 100 µM | [10] 81.8 µM | [11] > 100 µM | [13] 72.3 µM | [14] > 100 µM | [15] 83.2 µM | [16] 35.5 µM

C=C1C2Oc3ccccc3C1N(c1ccccc1)O2 (stereo unspecified)
inactive: [1] 20 µM | [2] 21.3 µM | [3] 23.1 µM | [4] 20.8 µM | [5] 49 µM | [7] 34.4 µM | [9] 27.2 µM | [10] 40.6 µM | [11] 58.1 µM | [12] 40.8 µM | [13] 30.4 µM | [14] 20 µM | [15] 37.9 µM | [16] 37.2 µM

CCCCc1c2c(nc3c1CCCC3=O)C(=O)CCC2
inactive: [1] > 100 µM | [2] > 100 µM | [3] > 100 µM | [4] > 100 µM | [5] > 100 µM | [6] > 100 µM | [7] > 100 µM | [8] > 100 µM | [9] > 100 µM | [10] > 100 µM | [11] > 100 µM | [13] > 100 µM | [14] > 100 µM | [15] > 100 µM | [16] > 100 µM

CCCCCCCCCCNC(=S)OC
inactive: [1] 5.83 µM | [2] 24.3 µM | [3] 55.5 µM | [4] > 100 µM | [5] 59.2 µM | [6] 23 µM | [7] 25.7 µM | [8] 25 µM | [9] 20.2 µM | [10] 23.8 µM | [11] 51.2 µM | [12] 28.5 µM | [13] 34.3 µM | [14] 47.2 µM | [16] 33.6 µM

Cc1ccc(C)c(N2C(=O)C(=O)C(c3nc4ccccc4o3)/C(=N\NC(=O)c3ccccc3O)C2=O)c1 (stereo unspecified)
inactive: [1] 12.8 µM | [2] 4.09 µM | [3] 56.2 µM | [5] 12.3 µM | [6] 38.5 µM | [7] 6.52 µM | [8] 5.68 µM | [9] 17.5 µM | [10] 23 µM | [11] > 100 µM | [12] 3.75 µM | [13] 13.6 µM | [14] 11.7 µM | [15] 12.2 µM | [16] 12 µM

Cc1cc(N(CCC#N)CCC#N)ccc1/C=C1/N=C(c2ccccc2)N(N)C1=O
inactive: [1] > 100 µM | [2] 61.7 µM | [3] 46.1 µM | [5] 31.1 µM | [6] > 100 µM | [7] 79.8 µM | [8] 99.8 µM | [9] 26 µM | [10] > 100 µM | [11] > 100 µM | [12] 98.2 µM | [13] 84.1 µM | [14] 34.8 µM | [15] > 100 µM | [16] > 100 µM
